Data reported in patent publication US7598245B2 (Vertex Pharmaceuticals Incorporated, priority 2003, dated 2009).

What was measured:
Format in all cases: biochemical
human Src kinase = target: T1, human Src kinase (Homo sapiens, UniProt P12931); assay: Src inhibition assay B: spectrophotometric (uv-vis) coupled enzyme assay; conditions: 100 μM ATP
T1 construct: 25 nM of recombinant human Src kinase
Procedure, shortened: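 Recombinant human Src with 0.25 mg/ml poly Glu-Tyr in 0.025 M HEPES pH 7.6, 10 mM MgCl2, 2 mM DTT, 2.5% DMSO; 10 min preincubation at 30° C, started with 100 μM ATP. ADP quantified by pyruvate kinase/LDH coupled NADH oxidation at 340 nm; rates fitted to competitive inhibition model for Ki.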

JAK-3 = target: T2, JAK-3 (Homo sapiens, UniProt P52333); assay: JAK3 inhibition assay (ELISA, Poly (Glu, Ala, Tyr) coated plates); conditions: 2 μM ATP
T2 sequence (P52333 1-1124): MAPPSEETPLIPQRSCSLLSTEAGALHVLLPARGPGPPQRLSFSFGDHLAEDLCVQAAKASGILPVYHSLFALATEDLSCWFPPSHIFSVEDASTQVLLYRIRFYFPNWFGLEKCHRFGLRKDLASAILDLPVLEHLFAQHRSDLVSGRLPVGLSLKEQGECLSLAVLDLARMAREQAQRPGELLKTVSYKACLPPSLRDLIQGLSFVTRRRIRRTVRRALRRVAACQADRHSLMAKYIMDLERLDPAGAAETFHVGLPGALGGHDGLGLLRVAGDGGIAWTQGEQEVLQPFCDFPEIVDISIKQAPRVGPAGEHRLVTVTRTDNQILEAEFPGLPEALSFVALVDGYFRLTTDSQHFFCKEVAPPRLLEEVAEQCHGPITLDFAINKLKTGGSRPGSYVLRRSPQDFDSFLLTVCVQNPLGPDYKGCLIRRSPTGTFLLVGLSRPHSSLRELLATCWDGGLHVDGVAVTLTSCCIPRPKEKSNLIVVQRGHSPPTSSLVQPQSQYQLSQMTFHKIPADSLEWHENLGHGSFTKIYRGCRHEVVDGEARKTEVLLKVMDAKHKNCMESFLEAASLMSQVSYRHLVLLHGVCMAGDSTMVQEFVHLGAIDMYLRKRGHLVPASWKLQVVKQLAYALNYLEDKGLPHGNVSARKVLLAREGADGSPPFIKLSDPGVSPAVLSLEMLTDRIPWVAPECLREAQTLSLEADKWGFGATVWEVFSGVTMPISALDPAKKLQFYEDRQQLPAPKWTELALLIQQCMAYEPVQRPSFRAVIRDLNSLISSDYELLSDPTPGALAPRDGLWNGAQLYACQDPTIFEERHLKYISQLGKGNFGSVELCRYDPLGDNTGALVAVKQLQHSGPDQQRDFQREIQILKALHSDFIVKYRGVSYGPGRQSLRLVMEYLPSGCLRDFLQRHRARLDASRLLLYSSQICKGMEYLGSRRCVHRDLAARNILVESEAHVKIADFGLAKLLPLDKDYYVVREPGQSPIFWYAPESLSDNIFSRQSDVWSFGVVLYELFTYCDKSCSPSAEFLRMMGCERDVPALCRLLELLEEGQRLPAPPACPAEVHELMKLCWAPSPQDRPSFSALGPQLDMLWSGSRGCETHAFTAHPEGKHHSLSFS
Procedure, shortened: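 ELISA on plates coated with poly(Glu,Ala,Tyr) 6:3:1, with 2 μM ATP, 5 mM MgCl2 and compound. Enzyme-started reaction ran 60 min at 30 °C. Phosphotyrosine detected with HRP-4G10 and TMB at 450 nm; Ki values derived.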

KDR = KDR (Homo sapiens, UniProt P35968); assay: Inhibition of KDR, coupled enzyme assay; conditions: 300 μM ATP, 37° C.
Protocol: Compounds were screened for their ability to inhibit KDR using a standard coupled enzyme assay (Fox et al., Protein Sci., (1998) 7, 2249). Assays were carried out in a mixture of 200 mM HEPES 7.5, 10 mM MgCl2, 25 mM NaCl, 1 mM DTT and 1.5% DMSO. Final substrate concentrations in the assay were 300 μM ATP (Sigma Chemicals) and 10 μM poly E4Y (Sigma). Assays were carried out at 37° C. and 30 nM KDR. Final concentrations of the components of the coupled enzyme system were 2.5 mM phosphoenolpyruvate, 200 μM NADH, 30 μg/ML pyruvate kinase and 10 μg/ml lactate dehydrogenase.
An assay stock buffer solution was prepared containing all of the reagents listed above, with the exception of ATP and the test compound of interest. 177 μl of the stock solution was placed in a 96 well plate followed by addition of 3 μl of 2 mM DMSO stock containing the test compound (final compound concentration 30 μM). The plate was preincubated for about 10 minutes at 37° C. and the reaction initiated by addition of 20 μl of ATP (final concentration 300 μM). Rates of reaction were obtained using a Molecular Devices plate reader (Sunnyvale, Calif.) over a 5 minute read time at 37° C.

Sequence of KDR (P35968 20-1356): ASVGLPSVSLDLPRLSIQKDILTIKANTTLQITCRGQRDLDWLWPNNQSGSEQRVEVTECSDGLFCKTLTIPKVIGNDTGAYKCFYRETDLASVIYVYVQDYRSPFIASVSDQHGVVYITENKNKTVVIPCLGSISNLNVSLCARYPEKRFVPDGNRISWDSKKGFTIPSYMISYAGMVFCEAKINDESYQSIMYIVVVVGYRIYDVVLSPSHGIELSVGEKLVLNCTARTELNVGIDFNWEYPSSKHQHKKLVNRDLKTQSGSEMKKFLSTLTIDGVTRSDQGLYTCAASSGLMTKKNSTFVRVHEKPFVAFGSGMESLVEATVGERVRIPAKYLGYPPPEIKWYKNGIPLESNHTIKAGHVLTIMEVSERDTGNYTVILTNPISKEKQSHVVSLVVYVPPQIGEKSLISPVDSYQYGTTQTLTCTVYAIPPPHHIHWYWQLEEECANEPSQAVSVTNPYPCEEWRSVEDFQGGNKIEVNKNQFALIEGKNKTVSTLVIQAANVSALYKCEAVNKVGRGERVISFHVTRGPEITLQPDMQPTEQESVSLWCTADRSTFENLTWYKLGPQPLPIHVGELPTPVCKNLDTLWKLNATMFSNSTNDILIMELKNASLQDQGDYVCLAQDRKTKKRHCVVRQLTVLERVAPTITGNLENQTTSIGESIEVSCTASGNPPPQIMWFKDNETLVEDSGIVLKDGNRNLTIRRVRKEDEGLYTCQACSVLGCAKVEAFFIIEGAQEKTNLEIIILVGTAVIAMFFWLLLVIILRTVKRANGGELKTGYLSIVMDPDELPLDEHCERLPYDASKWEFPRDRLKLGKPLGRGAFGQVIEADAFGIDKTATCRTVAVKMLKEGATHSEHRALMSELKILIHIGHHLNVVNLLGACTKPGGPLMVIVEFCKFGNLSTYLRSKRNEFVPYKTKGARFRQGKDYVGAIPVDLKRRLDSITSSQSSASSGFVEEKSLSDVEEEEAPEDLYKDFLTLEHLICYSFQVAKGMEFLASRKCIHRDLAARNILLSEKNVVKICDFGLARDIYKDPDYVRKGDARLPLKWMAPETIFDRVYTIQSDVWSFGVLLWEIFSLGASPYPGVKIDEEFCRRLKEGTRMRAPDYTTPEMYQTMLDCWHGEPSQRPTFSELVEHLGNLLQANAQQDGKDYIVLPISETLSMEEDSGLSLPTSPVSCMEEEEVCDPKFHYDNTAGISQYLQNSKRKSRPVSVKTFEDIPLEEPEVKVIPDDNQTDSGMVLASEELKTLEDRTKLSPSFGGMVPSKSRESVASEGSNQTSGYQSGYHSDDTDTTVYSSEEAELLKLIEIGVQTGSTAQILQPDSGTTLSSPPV
T1 sequence (P12931 whole entry): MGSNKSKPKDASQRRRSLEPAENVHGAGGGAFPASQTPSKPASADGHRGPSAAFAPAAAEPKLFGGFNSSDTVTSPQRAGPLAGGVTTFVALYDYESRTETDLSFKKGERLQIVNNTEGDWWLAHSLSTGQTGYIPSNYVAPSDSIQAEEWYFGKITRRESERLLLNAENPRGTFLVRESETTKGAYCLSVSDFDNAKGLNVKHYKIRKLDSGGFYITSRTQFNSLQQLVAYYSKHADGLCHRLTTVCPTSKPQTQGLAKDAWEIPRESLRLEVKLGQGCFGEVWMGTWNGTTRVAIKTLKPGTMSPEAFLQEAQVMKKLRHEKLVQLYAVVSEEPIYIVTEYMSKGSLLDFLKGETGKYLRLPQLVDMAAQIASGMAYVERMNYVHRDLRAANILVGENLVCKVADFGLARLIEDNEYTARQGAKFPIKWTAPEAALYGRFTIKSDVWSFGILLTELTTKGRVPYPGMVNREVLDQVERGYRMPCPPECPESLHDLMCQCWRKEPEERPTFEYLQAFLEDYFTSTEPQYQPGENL

Structure (SMILES)	Ki (human Src kinase) [µM]	Ki (JAK-3) [µM]	Ki (KDR) [µM]
CC(=O)N1CCCN(c2cc(-n3cnc(Nc4ccccc4)n3)ccn2)CC1 [Compound I-66]	> 1	0.01 to 1	0.1 to 1
c1ccc(-n2cnc(Nc3ccc(N4CCOCC4)cc3)n2)cc1 [Compound I-106]	> 1	0.01 to 1	0.1 to 1
c1ccc(Nc2ncn(-c3ccnc(N4CCCCC4)c3)n2)cc1 [Compound I-49, phenyl-[1-(3,4,5,6-tetrahydro-2H-[1,2′]bipyridinyl-4′-yl)-1H-[1,2,4]triazol-3-yl]-amine]	< 0.5	0.01 to 1	< 0.1
CC(C)(C)CC(=O)Nc1cc(-n2cnc(Nc3ccccc3)n2)ccn1 [Compound I-102]	< 0.5	> 1	0.1 to 1
CCN(CCO)c1cc(-n2cnc(Nc3ccccc3)n2)ccn1 [Compound I-54]	< 0.5	0.01 to 1	< 0.1
c1ccc(Nc2ncn(-c3ccnc(NC4CCCCC4)c3)n2)cc1 [Compound I-50]	< 0.5	0.01 to 1	0.1 to 1
COCCN(C)c1cc(-n2cnc(Nc3ccccc3)n2)ccn1 [Compound I-59, (2-methoxy-ethyl)-methyl-[4-(3-phenylamino-[1,2,4]triazol-1-yl)-pyridin-2-yl]-amine]	> 1	0.01 to 1	< 0.1
CN(CCO)c1cc(-n2cnc(Nc3ccccc3)n2)ccn1 [Compound I-51]	> 1	0.01 to 1	< 0.1
CCOC(=O)c1ccc(Nc2ncn(-c3ccnc(N4CCCN(C(C)=O)CC4)c3)n2)cc1 [Compound I-76]	> 1	0.01 to 1	0.1 to 1
CN1C(C)(C)CC(Nc2cc(-n3cnc(Nc4ccccc4)n3)ccn2)CC1(C)C [Compound I-61]	< 0.5	> 1	0.1 to 1
O=C(C1CCCO1)N1CCN(c2cc(-n3cnc(Nc4ccccc4)n3)ccn2)CC1 (stereo not drawn) [Compound I-64]	> 1	> 1	> 1
CCC(=O)N1CCCN(c2cc(-n3cnc(Nc4ccccc4)n3)ccn2)CC1 [Compound I-67]	> 1	0.01 to 1	0.1 to 1
